Results on four compounds are retold here after ChEMBL document CHEMBL6078652, “Discovery of Sporachelins by Genome Mining of a Micromonospora Strain” (J Nat Prod, 2024).

Data set [1] concerns LX-2. The data set is described as follows: Antifibrotic activity against TGFbeta-1 induced human LX-2 cells assessed as inhibition of COL1A1 mRNA expression at 1 uM incubated for 24 hrs by qRT-PCR analysis relative to control. The class given is functional. Also on record: scale not given: the % may be the effect or the level left.
In data set [2] the test system is LX-2. Put plainly: Antifibrotic activity against TGFbeta-1 induced human LX-2 cells assessed as inhibition of COL1A1 mRNA expression at 5 uM incubated for 24 hrs by qRT-PCR analysis relative to control. The class given is functional. On the set-up: scale not given: the % may be the effect or the level left. (In general: Real-time PCR tracks product formation cycle by cycle.)

For data set [3], the system named is LX-2. Put plainly: Antifibrotic activity against TGFbeta-1 induced human LX-2 cells assessed as inhibition of TGFB1 mRNA expression at 1 uM incubated for 24 hrs by qRT-PCR analysis relative to control. The class given is functional. On the set-up: scale not given: the % may be the effect or the level left.
In data set [4] the test system is LX-2. Put plainly: Antifibrotic activity against TGFbeta-1 induced human LX-2 cells assessed as inhibition of TGFB1 mRNA expression at 5 uM incubated for 24 hrs by qRT-PCR analysis relative to control. The class given is functional. On the set-up: scale not given: the % may be the effect or the level left.
In data set [5] the test system is LX-2. The data set is described as follows: Antifibrotic activity against TGFbeta-1 induced human LX-2 cells assessed as inhibition of ACTA2 mRNA expression at 1 uM incubated for 24 hrs by qRT-PCR analysis relative to control. The class given is functional. Also on record: scale not given: the % may be the effect or the level left.
Data set [6] has as its system LX-2. The data set is described as follows: Antifibrotic activity against TGFbeta-1 induced human LX-2 cells assessed as inhibition of ACTA2 mRNA expression at 5 uM incubated for 24 hrs by qRT-PCR analysis relative to control. In kind it is functional. Also on record: scale not given: the % may be the effect or the level left.
Data set [7] relates to LX-2. Put plainly: Cytotoxicity against human LX-2 cells assessed as reduction in cell viability at 200 uM incubated for 24 hrs by CCK-8 assay. The class given is toxicity, cell-based. Particulars: lx-2, 24 h. For orientation: Formazan colour is commonly taken as a measure of viable cells.
The subject of data set [8] is NIH3T3. Put plainly: Antifibrotic activity against TGFbeta-1 induced mouse NIH3T3 cells assessed as decrease in COL1A1 mRNA expression at 1 uM incubated for 24 hrs by qRT-PCR analysis relative to control. The class given is functional. On the set-up: scale not given: the % may be the effect or the level left.
The test system of data set [9] is NIH3T3. Put plainly: Antifibrotic activity against TGFbeta-1 induced mouse NIH3T3 cells assessed as decrease in COL1A1 mRNA expression at 5 uM incubated for 24 hrs by qRT-PCR analysis relative to control. In kind it is functional. Also on record: scale not given: the % may be the effect or the level left.
Data set [10] has as its system NIH3T3. Put plainly: Antifibrotic activity against TGFbeta-1 induced mouse NIH3T3 cells assessed as decrease in Acta2 mRNA expression at 1 uM incubated for 24 hrs by qRT-PCR analysis relative to control. The class given is functional. On the set-up: scale not given: the % may be the effect or the level left.
Data set [11] deals with NIH3T3. The data set is described as follows: Antifibrotic activity against TGFbeta-1 induced mouse NIH3T3 cells assessed as decrease in Acta2 mRNA expression at 5 uM incubated for 24 hrs by qRT-PCR analysis relative to control. The class given is functional. On the set-up: scale not given: the % may be the effect or the level left.
For data set [12], the target named is T1, Polyunsaturated fatty acid 5-lipoxygenase (Homo sapiens) (UniProt P09917).
T1 sequence (whole entry): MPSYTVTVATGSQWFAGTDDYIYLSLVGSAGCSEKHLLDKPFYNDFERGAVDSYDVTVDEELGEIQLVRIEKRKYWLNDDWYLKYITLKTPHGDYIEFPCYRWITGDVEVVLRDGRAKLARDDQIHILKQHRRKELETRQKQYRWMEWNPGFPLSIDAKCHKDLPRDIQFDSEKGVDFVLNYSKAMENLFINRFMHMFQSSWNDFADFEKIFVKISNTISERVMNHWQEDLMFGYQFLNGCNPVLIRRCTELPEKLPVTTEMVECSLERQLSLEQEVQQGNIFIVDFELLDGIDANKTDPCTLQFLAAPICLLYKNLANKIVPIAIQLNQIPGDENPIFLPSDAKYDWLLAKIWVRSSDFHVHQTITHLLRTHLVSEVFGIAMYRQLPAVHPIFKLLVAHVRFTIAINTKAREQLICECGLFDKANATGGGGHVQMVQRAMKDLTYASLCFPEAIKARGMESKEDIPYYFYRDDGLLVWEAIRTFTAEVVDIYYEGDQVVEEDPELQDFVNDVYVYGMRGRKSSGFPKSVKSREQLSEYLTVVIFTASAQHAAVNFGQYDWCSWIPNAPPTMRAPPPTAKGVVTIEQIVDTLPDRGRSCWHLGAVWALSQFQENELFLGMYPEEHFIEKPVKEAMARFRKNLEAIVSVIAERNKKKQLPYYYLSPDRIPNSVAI
Put plainly: Inhibition of human 5-LO at 2 uM incubated for 15 mins in presence of ATP by measuring fluorescence intensity relative to control.

Data set [13] deals with LX-2. Put plainly: Antifibrotic activity against TGFbeta-1 induced human LX-2 cells assessed as inhibition of COL1A1 mRNA expression incubated for 24 hrs by qRT-PCR analysis. The class given is functional, cell-based. The conditions noted are these: dose 1-5 µM.
Data set [14] has as its system LX-2. The data set is described as follows: Antifibrotic activity against TGFbeta-1 induced human LX-2 cells assessed as inhibition of TGFB1 mRNA expression incubated for 24 hrs by qRT-PCR analysis. The class given is functional, cell-based. Particulars: dose 1-5 µM.
Data set [15] relates to LX-2. The data set is described as follows: Antifibrotic activity against TGFbeta-1 induced human LX-2 cells assessed as inhibition of ACTA2 mRNA expression incubated for 24 hrs by qRT-PCR analysis. The class given is functional, cell-based. Particulars: dose 1-5 µM.
Data set [16] has as its system Escherichia coli. The data set is described as follows: Antibacterial activity against Escherichia coli ATCC 25922 assessed as bacterial growth inhibition incubated for 16 hrs in presence of Muller-Hinton medium by broth microdilution method. The class given is functional, organism-based.
The test system of data set [17] is Escherichia coli. Put plainly: Antibacterial activity against Escherichia coli ATCC 35218 assessed as bacterial growth inhibition incubated for 16 hrs in presence of Muller-Hinton medium by broth microdilution method. In kind it is functional, organism-based. On the technique in general: Broth dilution looks for growth in wells or tubes with falling amounts of substance.

Data set [18] concerns Pseudomonas aeruginosa. Put plainly: Antibacterial activity against Pseudomonas aeruginosa ATCC 27853 assessed as bacterial growth inhibition incubated for 16 hrs in presence of Muller-Hinton medium by broth microdilution method. In kind it is functional, organism-based.
The subject of data set [19] is Pseudomonas aeruginosa. The data set is described as follows: Antibacterial activity against Pseudomonas aeruginosa 2774 assessed as bacterial growth inhibition incubated for 16 hrs in presence of Muller-Hinton medium by broth microdilution method. In kind it is functional, organism-based.
For data set [20], the system named is Klebsiella pneumoniae. Put plainly: Antibacterial activity against Klebsiella pneumoniae ATCC 10031 assessed as bacterial growth inhibition incubated for 16 hrs in presence of Muller-Hinton medium by broth microdilution method. In kind it is functional, organism-based.
Data set [21] has as its system Klebsiella pneumoniae. The data set is described as follows: Antibacterial activity against Klebsiella pneumoniae ATCC 700603 assessed as bacterial growth inhibition incubated for 16 hrs in presence of Muller-Hinton medium by broth microdilution method. The class given is functional, organism-based.
For data set [22], the system named is Acinetobacter baumannii. The data set is described as follows: Antibacterial activity against Acinetobacter baumannii ATCC 19606 assessed as bacterial growth inhibition incubated for 16 hrs in presence of Muller-Hinton medium by broth microdilution method. The class given is functional, organism-based.
Data set [23] concerns Acinetobacter baumannii. The data set is described as follows: Antibacterial activity against Acinetobacter baumannii 2799 assessed as bacterial growth inhibition incubated for 16 hrs in presence of Muller-Hinton medium by broth microdilution method. In kind it is functional, organism-based.
In data set [24] the test system is Enterococcus faecium. Put plainly: Antibacterial activity against Enterococcus faecium 310682 (VRE) assessed as bacterial growth inhibition incubated for 16 hrs in presence of brain heart infusion medium by broth microdilution method. The class given is functional, organism-based.
For data set [25], the system named is Enterococcus faecalis. Put plainly: Antibacterial activity against Enterococcus faecalis ATCC 33186 assessed as bacterial growth inhibition incubated for 16 hrs in presence of brain heart infusion medium by broth microdilution method. The class given is functional, organism-based.
The subject of data set [26] is Staphylococcus aureus. Put plainly: Antibacterial activity against Staphylococcus aureus ATCC 33591 assessed as bacterial growth inhibition incubated for 16 hrs in presence of Muller-Hinton medium by broth microdilution method. The class given is functional, organism-based.
In data set [27] the test system is Staphylococcus aureus. Put plainly: Antibacterial activity against Staphylococcus aureus ATCC 29213 assessed as bacterial growth inhibition incubated for 16 hrs in presence of Muller-Hinton medium by broth microdilution method. The class given is functional, organism-based.
Data set [28] relates to Bacillus subtilis. Put plainly: Antibacterial activity against Bacillus subtilis CPCC 100029 assessed as bacterial growth inhibition incubated for 16 hrs in presence of Muller-Hinton medium by broth microdilution method. In kind it is functional, organism-based.
In data set [29] the test system is LX-2. Put plainly: Antifibrotic activity against TGFbeta-1 induced human LX-2 cells assessed as inhibition of COL1A1 mRNA expression at 20 uM incubated for 24 hrs by qRT-PCR analysis relative to control. The class given is functional. Also on record: scale not given: the % may be the effect or the level left.
Data set [30] deals with LX-2. Put plainly: Antifibrotic activity against TGFbeta-1 induced human LX-2 cells assessed as inhibition of TGFB1 mRNA expression at 20 uM incubated for 24 hrs by qRT-PCR analysis relative to control. In kind it is functional. On the set-up: scale not given: the % may be the effect or the level left.
For data set [31], the system named is LX-2. Put plainly: Antifibrotic activity against TGFbeta-1 induced human LX-2 cells assessed as inhibition of ACTA2 mRNA expression at 20 uM incubated for 24 hrs by qRT-PCR analysis relative to control. On the set-up: scale not given: the % may be the effect or the level left. In kind it is functional.

The source made the active and inactive calls. The rule behind the calls is not given here.

On to `CC(=O)OC[C@H](CCCCNC(=O)c1cccc(O)c1O)NC(=O)c1cccc(O)c1O`, for which the Activity in [1] was determined as 35%; in [2] it was 81%; in data set [3] it was 36%; in data set [4] it was 70%; in data set [5], 62%; in data set [6] it was 132%. Further, the Activity result in [7] is “Non-toxic”; in data set [8] it was 60%; in data set [9], 70%; in [10] it was 95%; in [11], 129%; in [13] it was “Dose-dependent-effect”. Further, the Activity result in data set [14] and in data set [15] was “Dose-dependent-effect” in each case. Further, in [12], the inhibition (as a rule, the relative decrease from the control value, in per cent) was found to be 78%. In addition, the outcome in [16], in data set [17], in data set [18], in data set [19], in [20] and in data set [21] was inactive. The result in data set [22], in [23], in [24], in [25], in data set [26] and in data set [27] was inactive. In [28], the result was inactive.
Take `O=C(O[C@@H]1Cc2c(O)cc(O)cc2O[C@@H]1c1cc(O)c(O)c(O)c1)c1cc(O)c(O)c(O)c1` [EPIGALOCATECHIN GALLATE]: the Activity in data set [29] came out at 89%; in [30], 88%; in data set [31] it was 62%.
As for `O=C(NCCCC[C@@H](CO)NC(=O)c1cccc(O)c1O)c1cccc(O)c1O`, the Activity in data set [1] came out at 39%; in data set [2], 82%; in [3] it was 60%; in data set [4], 74%; in [5], 87%; in [6] it was 136%. Also, the Activity result in data set [7] is “Non-toxic”; in data set [8] it was 9%; in data set [9] it was 78%; in data set [10], 70%; in [11], 108%; in [13], “Dose-dependent-effect”. For the same compound, the Activity result in data set [14] and in [15] was “Dose-dependent-effect” in each case. Besides, the inhibition in [12] stood at 67%. Besides, the result in [16], in [17], in [18], in data set [19], in data set [20] and in data set [21] was inactive. For the same compound, the outcome in [22], in data set [23], in data set [24], in data set [25], in data set [26] and in [27] was inactive. For the same compound, the outcome in data set [28] was inactive.
As for `O=C(Cc1ccccc1)OC[C@H](CCCCNC(=O)c1cccc(O)c1O)NC(=O)c1cccc(O)c1O`, the Activity is 46% in data set [1]; 87% in [2]; 46% in data set [3]; 69% in [4]; 82% in [5]; 139% in data set [6]. In addition, the Activity entry in data set [7] was “Non-toxic”; in data set [8], 78%; in [9], 81%; in data set [10], 94%; in data set [11] it was 124%; in data set [13] it was “Dose-dependent-effect”. In addition, the Activity entry in data set [14] and in data set [15] was “Dose-dependent-effect” in each case. The inhibition in data set [12] was found to be 72%. Moreover, the result in data set [16], in data set [17], in data set [18], in data set [19], in [20] and in data set [21] was inactive. The outcome in [22], in data set [23], in data set [24], in [25], in [26] and in [27] was inactive. Also, in data set [28], the result was inactive.
